{"source": "patent US20220040160A1", "about": "“COMBINATION OF HISTONE DEACETYLASE INHIBITOR AND IMMUNOTHERAPY” (The United States of America,as represented by the …, priority 2016, published 2022)", "key": {"[1]": {"test_system": "LNCaP prostate carcinoma cells", "assay": "Antigen-specific CTL lysis, overnight 111In-release assay", "assay_type": "cell-based, human", "conditions": "E:T=30:1", "description": "(§1) Vorinostat and entinostat were obtained from Selleck Chemicals. Adherent tumor cells in log-growth phase were exposed daily to vehicle (DMSO) or vorinostat at the indicated concentrations for 5 h, over 4 consecutive days. At the end of each treatment, cells were washed in fresh medium and returned to incubation at 37° C. with 5% CO2. Alternatively, cells were continuously exposed to vehicle (DMSO) or entinostat at the indicated concentrations for 72 h.\n(§2) Carcinoembryonic antigen (CEA)-specific CTLs recognize the CEA peptide epitope […] (CAP-1) (SEQ ID NO: 1) (Tsang et al., J. Natl. Cancer Inst., 87(13): 982-990 (1995)). Prostate-specific antigen (PSA)-specific CTLs recognize the PSA peptide epitope […] (SEQ ID NO: 2) (Correale et al., J. Natl. Cancer Inst., 89(4): 293-300 (1997)). The mucin-1 (MUC-1)-specific CD8^+ CTL line, designated MUC-1 CTL, recognizes the MUC-1 peptide epitope […] (SEQ ID NO: 3) (Tsang et al., Clin. Cancer Res., 10(6): 2139-2149 (2004)). Brachyury-specific CTLs recognize the brachyury peptide epitope […] (T-p2) (SEQ ID NO: 4) (Tucker et al., Cancer Immunol. Immunother., 63(12): 1307-1317 (2014)). All T-cell lines were HLA-A2-restricted.\nCarcinoma cells exposed to vorinostat, entinostat, or vehicle (DMSO) were labeled with ^111In prior to being used as targets for direct lysis by effector CTLs at an effector-to-target ratio of 30:1 in a standard overnight cytotoxicity ^111In-release assay (Gameiro et al., Oncoimmunology, 3: e28643 (2014)).\nThe effect of clinically relevant vorinostat exposure on prostate and breast carcinoma cells' sensitivity to antigen-specific CTL-mediated lysis was examined. LNCaP and MDA-MB-231 were exposed to vorinostat or to vehicle as before, prior to being used as targets for antigen-specific CTL lysis, using CEA-, brachyury-, MUC-1-, or PSA-specific CD8^+ T cells as effector cells."}, "[2]": {"test_system": "ER stress response element (ERSE)", "assay": "Luciferase ER stress reporter assay in LNCaP clones", "assay_type": "cell-based, human", "conditions": "designated concentrations", "description": "as §1"}, "[3]": {"test_system": "prostate and breast carcinoma cells", "assay": "NK cell mediated lysis of carcinoma cells", "assay_type": "cell-based, human", "conditions": "after clinically relevant exposure", "description": "Human prostate (LNCaP), breast (MDA-MB-231), and lung (H460) carcinoma cells were exposed to vorinostat or vehicle (DMSO) and the percent lysis was determined. At the end of treatment, the cells were used as targets in a lysis assay wherein NK cells isolated from human PBMCs were used as effectors (varying E:T ratios as indicated in FIG. 7)."}, "[4]": {"test_system": "non-small cell lung cancer (NSCLC)", "conditions": "entinostat given with the DNMT inhibitor azacitidine; subsequent therapies given immediately after epigenetic therapy; cited from earlier work"}, "[5]": {"test_system": "MDA-MB-231 breast carcinoma cells", "assay": "Cell growth and viability, trypan blue count / Live-Dead flow cytometry", "assay_type": "cell-based", "conditions": "1 or 3 μM, 5 h daily over 4 days", "description": "as §1\n(§3) Tumor cells were exposed to DMSO or vorinostat as described above. Cells were harvested daily and viable cells were counted by trypan blue exclusion using a Cellometer Auto T4 automated cell counter (Nexcelom Bioscience). Cellular viability was confirmed by flow cytometry using Live/Dead exclusion, according to manufacturer's instructions (Invitrogen).\n(§4) Therefore, the in vitro effect of clinically relevant exposure of human prostate (LNCaP) and breast (MDA-MB-231) carcinoma cells to vorinostat on the activity of HDAC enzymes (isoforms 1-11), cellular proliferation, and viability was examined. Tumor cells were exposed daily for 5 h to 1 μM or 3 μM vorinostat, or vehicle (DMSO) over 4 consecutive days, mimicking the range of vorinostat exposure (Cmax, AUC) attained in cancer patients after oral once daily intake of 400 mg (Iwamoto et al., Cancer Chemother. Pharmacol., 72(3): 493-508 (2013)). […] Vorinostat concentration of 3 μM was used for all subsequent experiments."}, "[6]": {"test_system": "LNCaP prostate carcinoma cells", "assay": "Cell growth and viability, trypan blue count / Live-Dead flow cytometry", "assay_type": "cell-based", "conditions": "1 or 3 μM, 5 h daily over 4 days", "description": "as §1, §3, §4"}, "[7]": {"test_system": "HDAC enzymes (isoforms 1-11)", "assay": "HDAC activity assay (EpiQuik colorimetric kit) on nuclear extracts of treated carcinoma cells", "assay_type": "cell-based, human", "conditions": "1 or 3 μM, 5 h daily over 4 days, at 96 h, vs DMSO", "description": "(§5) Vorinostat and entinostat were obtained from Selleck Chemicals.\nChanges in the nuclear enzyme activity of HDAC isoforms 1-11 following vorinostat treatment of MDA-MB-231 and LNCaP cells were determined using the colorimetric EpiQuik HDAC Activity/Inhibition Assay Kit (Epigentek). Briefly, 10 μg of extracted nuclear HDAC proteins were incubated with acetylated HDAC substrate for 90 min at 37° C. HDAC deacetylated products were detected following sequential incubation with capture and detection antibodies, according to the manufacturer's specifications.\nas §4"}, "[8]": {"test_system": "HLA-A2 negative AsPC-1 pancreatic carcinoma cells", "assay": "Antigen-specific CTL lysis, HLA-restriction control", "assay_type": "cell-based, human", "conditions": "cells exposed to vehicle or vorinostat 3 μM", "description": "as §1\nas §2, with “HLA-A2-restricted. […]” for “HLA-A2-restricted.”"}, "[9]": {"test_system": "antigen processing machinery (APM) components", "assay": "Flow cytometry of APM components and surface markers in MDA-MB-231 cells", "assay_type": "cell-based, human", "description": "as §5\nCell-surface and intracytoplasmic staining was performed as previously described (Ogino et al., J. Immunol. Methods, 278(1-2): 33-44 (2003)). Surface staining of tumor cells was performed using the primary labeled monoclonal antibodies HLA-A2-FITC, ICAM-1 (CD54)-PE, CEA (CD66)-FITC, MUC-1 (CD227)-FITC, and the appropriate isotype-matched controls (BD Biosciences). For intracellular analysis of antigen processing machinery (APM) components, mouse IgG1 (MK2-23) isotype control, LMP2 (SY-1)-, LMP7 (HB2)-, TAP-1 (NOB1)-, calnexin (TO-5)-, β2-microglobulin (L368), and tapasin (TO-3)-specific monoclonal antibodies were developed and characterized as described (Bandoh et al., Tissue Antigens, 66(3): 185-194 (2005); Ogino et al., Tissue Antigens, 62(5): 385-393 (2003); and Wang et al., J. Immunol. Methods, 299(1-2): 139-151 (2005)). Cellular fluorescence of 3×10^4 cells was examined on a FACSCalibur flow cytometer using CellQuest software (BD Biosciences).\nCTL killing of tumor targets requires T-cell recognition of specific major histocompatibility complex (MHC) Class I/CD8^+ restricted epitope complexes on the surface of tumor cells, an event determined by the cooperative interactions of multiple APM components. […] To test this hypothesis, MDA-MB-231 carcinoma cells were exposed to vorinostat or to vehicle as before. At the end of treatment, cells were examined by flow cytometry for intracellular expression of 6 APM components (FIG. 3)."}, "[10]": {"test_system": "MDA-MB-231 breast carcinoma cells", "conditions": "brachyury-specific CTL, 3 μM", "description": "as §1\nas §2, with “(T-p2) (SEQ ID NO: 4) (Tucker et al., Cancer Immunol. Immunother., 63(12): 1307-1317 (2014)). All T-cell lines were HLA-A2-restricted.” left out\nSilencer® siRNA and negative control siRNA were used to silence HDAC1, ERN1, and PERK in MDA-MB-231 carcinoma cells, according to the manufacturer's instructions (Life Technologies). […] Detection and quantification of band intensity were performed with the Odyssey Infrared Imaging System (LI-COR Biotechnology). […]"}, "[11]": {"test_system": "H460 lung carcinoma cells", "assay": "Avelumab (anti-PD-L1) mediated ADCC with NK effectors", "assay_type": "cell-based, human", "conditions": "3 μM, 5 h daily, 4 days, anti-PD-L1 vs isotype control", "description": "Lung (H460) and pancreatic (AsPC-1) carcinoma cells were exposed daily for 5 h to vorinostat (3 uM, black circles and bars) or DMSO (open circles and bars) for 4 consecutive days prior to being used as targets PDL-1-mediated ADCC. Upper panel: cell-surface expression of PDL1 in carcinoma targets. Middle panel: NK lysis in the presence of anti-PDL1 or isotype control Ab. Lower panel: H460 lysis in the presence of anti-PDL1 or isotype control antibodies using NK effector cells pre-incubated with anti-CD16 mAb. Results are presented as mean±S.E.M. from 3 replicate wells and are representative of 2-4 independent experiments. Asterisks denote statistical significance relative to controls (2-way ANOVA).\nHuman lung (H460) carcinoma cells were exposed to vorinostat and isotype control, anti-CD16, or anti-PD-L1 (avelumab)."}, "[12]": {"conditions": "MDA-MB-231, 3 μM, 96 h, intracellular flow cytometry"}}, "data": [{"smiles": "Nc1ccccc1NC(=O)c1ccc(CNC(=O)OCc2cccnc2)cc1", "note": "[entinostat]", "values": [{"measurement": "sensitivity to CTL-mediated killing (PSA-specific CTL)", "setting": "[1]; entinostat 500 nM, similar to vorinostat 3 μM, P<0.05", "value": "increased sensitivity"}, {"measurement": "activation of ERSE (firefly/renilla luciferase ratio normalized to DMSO)", "setting": "[2]; entinostat continuous exposure 72 h", "value": "activated ERSE in an exposure-dependent manner"}, {"measurement": "sensitivity to NK cell mediated lysis in vitro", "setting": "[3]", "value": "more sensitive"}, {"measurement": "patients with major objective responses to subsequent anticancer therapies", "setting": "[4]", "value": "4 out of 19"}]}, {"smiles": "O=C(CCCCCCC(=O)Nc1ccccc1)NO", "note": "[vorinostat]", "values": [{"measurement": "sensitivity to CTL-mediated lysis targeting MUC-1", "setting": "[1]; 3 μM, 5 h daily, 4 days, P<0.0001", "value": "significantly more sensitive"}, {"measurement": "sensitivity to CTL-mediated lysis targeting brachyury", "setting": "[1]; 3 μM, 5 h daily, 4 days, P=0.0004", "value": "significantly more sensitive"}, {"measurement": "sensitivity to CTL-mediated lysis targeting PSA", "setting": "[1]; 3 μM, 5 h daily, 4 days, P=0.0011", "value": "significantly more sensitive"}, {"measurement": "sensitivity to CTL-mediated lysis targeting CEA", "setting": "[1]; 3 μM, 5 h daily, 4 days, P=0.002", "value": "significantly more sensitive"}, {"measurement": "cellular viability", "setting": "[5]; at 96 h", "value": "no significant effect"}, {"measurement": "cellular proliferation", "setting": "[5]; vs vehicle, P<0.0001", "value": "significantly decreased"}, {"measurement": "cellular viability", "setting": "[6]; at 96 h", "value": "no significant effect"}, {"measurement": "cellular proliferation", "setting": "[6]; vs vehicle, P<0.0001", "value": "significantly decreased"}, {"measurement": "activation of ERSE (firefly/renilla luciferase ratio normalized to DMSO)", "setting": "[2]; vorinostat 5 h daily for 4 days", "value": "activated ERSE in a dose-dependent manner"}, {"measurement": "HDAC activity", "setting": "[7]; LNCaP prostate carcinoma cells, P=0.0006", "value": "significantly decreased"}, {"measurement": "HDAC activity", "setting": "[7]; MDA-MB-231 breast carcinoma cells, P=0.0046", "value": "significantly decreased"}, {"measurement": "CTL lysis of HLA-A2 negative targets", "setting": "[8]", "value": "absence of significant lysis"}, {"measurement": "sensitivity to NK cell mediated lysis in vitro", "setting": "[3]", "value": "more sensitive"}, {"measurement": "increase in Tapasin expression", "setting": "[9]; [12]", "value": 22, "unit": "%"}, {"measurement": "increase in expression of LMP2", "setting": "[9]; [12]", "value": "≥ 25", "unit": "%"}, {"measurement": "increase in expression of LMP7", "setting": "[9]; [12]", "value": "≥ 25", "unit": "%"}, {"measurement": "increase in expression of TAP1", "setting": "[9]; [12]", "value": "≥ 25", "unit": "%"}, {"measurement": "increase in expression of calnexin", "setting": "[9]; [12]", "value": "≥ 25", "unit": "%"}, {"measurement": "increase in expression of β2-microglobulin", "setting": "[9]; [12]", "value": "≥ 25", "unit": "%"}, {"measurement": "expression of CEA on the surface of tumor cells", "setting": "[9]; upon exposure to vorinostat", "value": "Increased expression"}, {"measurement": "expression of HLA class I antigens on the surface of tumor cells", "setting": "[9]; upon exposure to vorinostat", "value": "Increased expression"}, {"measurement": "expression of ICAM-1 on the surface of tumor cells", "setting": "[9]; upon exposure to vorinostat", "value": "Increased expression"}, {"measurement": "expression of MUC-1 on the surface of tumor cells", "setting": "[9]; upon exposure to vorinostat", "value": "Increased expression"}, {"measurement": "CTL lysis relative to vehicle control", "setting": "[10]; HDAC1-silenced cells", "value": "did not further increase"}, {"measurement": "increase in CTL sensitivity relative to vehicle controls", "setting": "[10]; control siRNA, E:T 30:1, P=0.0024", "value": 2, "unit": "fold"}, {"measurement": "avelumab-mediated ADCC", "setting": "[11]", "value": "increases"}]}]}
